Experimental data reported in patent publication US11090305B2, “Methods and compositions to reduce oxidative stress” (University of Massachusetts, priority 2009, dated 2021).

Assays:
db/db MSC [1] = assay: Basal protein expression in db/db MSC (western blot); format: cell-based, mouse
Notch1 = Notch1 expression in HSCs and lymphoid progenitors (Example 5); format: in vivo, mouse
Description: (§1) Cells were stained with monoclonal antibodies conjugated to various fluoroprobes. These antibodies included: Notch1, cKit (2B8), Sca-1 (E13-161.7), CD4 (L3T4), CD8 (53-6.72), CD90.1, CD25, CD44, TCRβ, NK1.1, γδTCR, CD45.1, CD45.2. The lineage cocktail consisted of CD4, CD8, B220 (RA3-6B2), TER-119, Mac-1 (MI/70), and Gr-1 (RB6-8C5). All antibodies were purchased from BD Bioscience (San Diego, Calif.). FACS analysis was carried out on a FACS Diva.
The Notch family is an evolutionarily conserved system of receptors and ligands that play a fundamental role in regulating cell-fate decision in many types of stem and progenitor cells, including HSCs. Notch1 plays a critical role in lymphocyte differentiation, wherein expression of Notch1 favors T cell differentiation. To clarify the effects of hypercholesterolemia on the expression Notch family, the expression of Notch family was screened in HSCs isolated from WT and ApoE^−/− mice. The percentage of HSCs expressing of Notch1 was higher in hypercholesterolemic than WT mice, whereas no differences in Notch2, Notch4, or Delta-like-1 were noted among groups (FIG. 47A). FIGS. 47A-47D show notch 1 expression is greater in HSCs from hypercholesterolemic mice. […] (B) Within the HSC population, a higher percentage of long term-HSCs expressed Notch1 than did short term-HSCs. This difference was evident in both WT and ApoE^−/− mice, although the percentage of short term-HSCs expressing Notch1 was twofold higher in ApoE^−/− than WT mice. […] (D) Treatment of ApoE^−/−, but not WT mice with SB203580 reduced the percentage of HSCs expressing Notch1. m±sd, n=5, *p<0.05 vs. WT, †p<0.05 vs. ApoE or HCD, p<0.05 vs. long-term HSCs.

Fyn = Fyn expression in total thymocyte population; format: in vivo, mouse; settings: ApoE^−/− and HCD mice
Source text: Fyn, a member of the Src family of tyrosine kinases, is a critical participant in NKT cell development (33,34). […] FIGS. 55A-55C show Thymocyte Fyn expression is reduced in hypercholesterolemic mice. […] Representative western blots from 3 mice in each group, all run on the same gel, are shown. […] However, in DN3 and DN4 thymocytes, Fyn mRNA expression was less in ApoE^−/− than in WT mice. m±sd, *p<0.05 vs. WT; n=4 mice per group. (C) siRNA for Notch1 reduced mRNA expression of Fyn in WT thymocytes in vitro, with a threshold observed at 1.0 μg siRNA. m±sd, n=3 mice; *p<0.05 vs. random RNA. A representative western blot showing a single experiment run on the same gel is shown. […] These findings indicate that Notch1 and Fyn expression are linked, and that the reduced NKT expression in hypercholesterolemic mice is due, in part, to the Notch1 dependent reduction of Fyn expression in thymocytes. Finally, Fyn expression was determined in the total thymocyte population from WT recipient mice transplanted with ApoE^−/−- or WT-derived HSCs. Thymocyte Fyn expression in WT recipients transplanted with ApoE^−/−-derived HSCs was less than half that observed in WT recipients transplanted with WT-derived HSCs (FIG. 56). […] Fyn expression in thymocytes from the Apoe→WT group was less than in the WT→WT group. m±sd; n=4; *p<0.05 vs. WT→WT group. […]

[2] = system: bone marrow mononuclear cell population; assay: Lymphocyte lineage specification: pre-B and pro-T cells in bone marrow; design: species or system mouse; settings: ApoE^−/− mice, in vivo treatment
Description: as §1
Hypercholesterolemia is associated with lymphocytosis, while induction of hypercholesterolemia in monkeys affects the rate of CD11b monocyte differentiation. […] FIGS. 46A-46C show lymphocyte lineage specification is altered in hypercholesterolemic mice. (A) The percentages of pre-B cells and pro-T cells in the bone marrow mononuclear cell population were lower and higher, respectively, in ApoE^−/− than in WT mice. These changes were reversed by in vivo treatment of ApoE mice with NAC. (B) The percentages of pre-B cells and pro-T cells in the bone marrow mononuclear cell population were lower and higher, respectively, in HCD than in WT mice. (C) The percentage of mature B cells was lower and that of mature T cells higher in the peripheral blood mononuclear cell population from ApoE mice than from WT mice. The percentage of NKT cells was also less in ApoE mice.

HSCs = assay: Competitive HSC transplantation, bone marrow repopulation; format: in vivo, mouse; settings: ApoE^−/− donor mice treated before HSC harvest (NAC 4 weeks; SB203580, PD98059 2 weeks)
Description: HSC were purified from freshly harvested bone marrow mononuclear cells as c-Kit^+Sca-1^+CD90.1^lowLin^− by FACS sorting. Recipient mice were C57BL/6 (WT) on standard chow. Recipients underwent lethal irradiation (1100 Rads delivered in 2 doses 3 hr apart). Immediately after the 2nd irradiation, recipients were anesthetized (2% isoflurane) and 10^6 HSC/0.1 ml sterile PBS were transplanted via retro-orbital injection. Mice were followed for 12 weeks before study or administration of AOM.
The functional consequence of this loss of quiescence by competitive transplantation was investigated next, insofar as the presence of quiescent HSC are critical for successful bone marrow reconstitution. HSCs from CD45.2 ApoE^−/− or HCD mice were mixed 1:1 with CD45.1 WT HSCs and then transplanted into lethally irradiated CD45.1 WT recipients.
Activation of p38 MAPK reduces HSC quiescence in Atm^−/− mice. To evaluate this phenomena in hypercholesterolemic mice, ApoE^−/− and WT mice were treated with the selective p38 MAPK inhibitor SB203580 or the MEK 1 inhibitor PD98059 for 2 weeks prior to harvest of HSCs for transplant. CD45.2 ApoE^−/− or WT HSCs with mixed 1:1 with CD45.1 WT HSCs and transplanted into lethally irradiated CD45.1 recipient mice.

db/db MSC [3] = assay: Differentiation of db/db MSC towards endothelial cells (CD31 staining); format: cell-based, mouse; settings: endogenic medium
Description: Endothelial cells were identified by CD31 staining. m±sd, n=4, *P<0.05.
Adipocytes were identified by Oil Red O staining. m±sd, n=4, *p<0.05 vs control. […] Endothelial cells were identified by CD31 staining. m±sd, n=4, *p<0.05 vs control, #p<0.05 vs 5 nM.

With `CC(=O)N[C@@H](CS)C(=O)O` [NAC, N-acetylcysteine] the eNOS expression (db/db MSC [1]) was “no change in eNOS expression”, the phospho-eNOS expression (db/db MSC [1]) was “increased phospho-eNOS expression” and the PPARγ expression (db/db MSC [1]; basal) was “reduced basal PPARγ expression”. The “percentages of pre-B cells and pro-T cells expressing Notch1” value (Notch1; ApoE^−/− mice, in vivo treatment) was “these effects were reversed by in vivo treatment with NAC”, the “percentage of HSCs expressing Notch1” value (Notch1; WT mice) was “no effect was noted in WT mice” and the “percentage of HSCs expressing Notch1” value (Notch1; hypercholesterolemic mice (ApoE^−/−, HCD), in vivo treatment) was “significantly reduced the percentage of ApoE^−/− and HCD HSCs expressing Notch1”. The “expression of Fyn in the total thymocyte population” value (Fyn) was “restored in vivo by treatment with NAC”, the “percentages of pre-B cells and pro-T cells in bone marrow” value [2] was “reversed these effects” and the “percentage of CD45.2^+ bone marrow mononuclear cells 12 weeks after competitive transplantation” value (HSCs) was “significantly increased the percentage of CD45.2^+ mononuclear cells in recipient bone marrow”. For the same molecule, the “differentiation towards endothelial cells” value (db/db MSC [3]) was “increased differentiation towards endothelial cells”.
